From article PMC5531494, “Target specificity, in vivo pharmacokinetics, and efficacy of the putative STAT3 inhibitor LY5 in osteosarcoma, Ewing's sarcoma, and rhabdomyosarcoma” (PLoS ONE, 2017)
Like-named read-outs stand apart in the source and are kept apart here.

How the values were obtained:
STAT3 [1] = molecular target: T1, STAT3 (Mus musculus, UniProt P42227); test: Western blot of pSTAT3 in K7M2 cells; assay type: cell-based, murine
T1 construct: endogenous in cells; host or cells: K7M2
Description: (§1) Murine K7M2 and human MG63.3 OS cells were treated with increasing concentrations of LY5 for 2 hrs or 7 hrs. Western blotting was performed for pSTAT3 and STAT3 as indicated above to confirm inhibition of STAT3 phosphorylation in the cell lines prior to initiation of the PuMA assay. In addition, a sulforhodamine B colorimetric assay was performed to assess the cytotoxicity of LY5 in K7M2 and MG63.3 cells as previously described.
(§2) MG63.3 and K7M2 cell lines were exposed to increasing concentrations of LY5 to determine the IC50 (A). Western blot analysis was performed to determine the dose and duration of LY5 exposure required to inhibit STAT3 phosphorylation (B-C). Serial imaging of fluorescently labeled MG63.3 and K7M2 cells was performed in ex vivo LY5 treated lung sections (D). Metastatic burden was quantified by evaluation of the percent tumor burden (mean normalized fluorescent area). Data are reported as the mean ± standard deviation. In MG 63.3 experiment, p < 0.0001 Kruskal-Wallis test, p < 0.05 10 μM vs control at days 7, 14, and 21, 10 μM vs 1 μM at days 7, 14, and 21, 50 μM vs control at days 7, 14, and 21, and 50 μM vs 10 μM at days 7, 14, and 21 post-test Dunn. In K7M2 experiment, p < 0.0001 Kruskal-Wallis test, p < 0.05 10 μM vs control at days 14 and 21, 10 μM vs 0.1 μM at days 14 and 21, and 10 μM vs 1 μM at days 14 and 21, post-test Dunn.

[2] = PK in normal beagle dogs, oral capsules of LY5 powder; assay type: in vivo; conditions: plasma, fasted; for AUC(0-inf): read-out: AUC inf-obs
Description: LY5 was evaluated in two normal purpose-bred beagle dogs (female 8.8 kg; male 11.2 kg) receiving a single dose of 1mg/kg LY5 IV then orally by gavage 7 days later to establish the PK profile and assess the spectrum of clinical toxicities associated with LY5 administration. The oral dosing was repeated in the fed and fasted state. The starting dose was determined based on allometric scaling from the maximal tolerated dose studies performed in mice. Dogs were washed out for 30 days, and then given a dose of 25 mg in a capsule orally, followed by a 50 mg capsule dose 14 days later. Full PK sampling was performed over 24 hours following each dose of LY5. The dogs received LY5 and were used for the PK analysis but were not euthanized upon conclusion of the study.
(§3) The liquid chromatography-mass spectrometry system utilized for these analyses consisted of a Dionex Ultimate 3000 RSLCnano High Performance Liquid Chromatography system and a Thermo Finnigan Quantum Ultras EMR mass spectrometer with an electrospray ionization source. Positive ionization mode was used for both LY5 and the internal standard, hesperetin. Plasma samples were collected and analyzed by the OSU James Comprehensive Cancer Center Pharmacoanalytical Shared Resource. Pharsight Phoenix WinNonlin software using non-compartmental analysis was used to generate PK parameters including maximum plasma concentration (Cmax), amount of time that drug is present at Cmax (Tmax), and total area under the curve (AUC). AUC all and AUC last were calculated by linear trapezoidal method of concentration-time curve up to the last measured point. AUC inf-obs was calculated by log-linear extrapolation of the terminal phase beyond the last collection time. Bioavailability (F) was calculated for IP and PO administration routes. Plasma stability and liver microsomal stability of LY5 were also assessed through this shared resource.

[3] = Plasma PK profile in mice; assay type: in vivo; conditions: ICR, mouse; for AUC(0-inf): read-out: AUC inf-obs; for bioavailability: read-out: F (bioavailability)
Description: Single-dose toxicity studies in mice were performed to identify the maximum tolerated dose of LY5. Additionally, 30 ICR mice (Harlan Laboratories, Indianapolis, IN) were divided into 3 groups to be dosed with 5 mg/kg LY5 (2 mg/ml) by oral (PO), intraperitoneal (IP) or intravenous (IV) routes to establish oral bioavailability. Animals were euthanized and blood was collected at allocated time points (5, 10, 20, 30 and 60 minutes, 2, 4, 6, 8 and 24 hrs) after LY5 administration, plasma was separated by centrifugation and frozen immediately on dry ice. Samples were stored at -80° C prior to analysis.
as §3

[4] = test system: human rhabdomyosarcoma cell lines RD, JR-1, and RH30; test: Alamar Blue cell viability assay, rhabdomyosarcoma panel; assay type: cell-based; conditions: range over RD, JR-1, RH30
Description: Sarcoma cell lines were seeded in 24-well plates in 1X RPMI medium containing 10% fetal bovine serum. Cells were then incubated with DMSO (control) or concentrations of LY5 ranging from 10 nM to 10 μM for 96 hrs. At the end of the incubation period, Alamar Blue (Invitrogen, Carlsbad, CA) was added to cells at one-tenth the volume of the cell culture medium and incubated for 3 hrs at 37° C in the dark. Fluorescence was then measured at an excitation/emissions wavelength of 570/590 nm and emission wavelength of 590 nm.
Fig 2 Biologic activity of LY5 in sarcoma cell lines. Dose response curves for LY5: RMS cell lines (RH30, RD, JR-1), ES cell lines (ES-3, ES-6, ES-7, ES-8), and an OS cell line (OS-17) were treated with LY5 (concentrations ranging from 10 nM to 10 μM) for 96 hours. Cell viability was determined using Alamar Blue staining. IC50 values are indicated for each cell line. Analyses were performed in triplicate and data are plotted as means ± standard deviation.

STAT3 [5] = molecular target: STAT3 (Homo sapiens, UniProt P40763); test: Western blot of pSTAT3 in MG63.3 cells; assay type: cell-based; parameters: endogenous in cells; host or cells: MG63.3
Chain of STAT3 (Homo sapiens, UniProt P40763) (P40763 whole entry): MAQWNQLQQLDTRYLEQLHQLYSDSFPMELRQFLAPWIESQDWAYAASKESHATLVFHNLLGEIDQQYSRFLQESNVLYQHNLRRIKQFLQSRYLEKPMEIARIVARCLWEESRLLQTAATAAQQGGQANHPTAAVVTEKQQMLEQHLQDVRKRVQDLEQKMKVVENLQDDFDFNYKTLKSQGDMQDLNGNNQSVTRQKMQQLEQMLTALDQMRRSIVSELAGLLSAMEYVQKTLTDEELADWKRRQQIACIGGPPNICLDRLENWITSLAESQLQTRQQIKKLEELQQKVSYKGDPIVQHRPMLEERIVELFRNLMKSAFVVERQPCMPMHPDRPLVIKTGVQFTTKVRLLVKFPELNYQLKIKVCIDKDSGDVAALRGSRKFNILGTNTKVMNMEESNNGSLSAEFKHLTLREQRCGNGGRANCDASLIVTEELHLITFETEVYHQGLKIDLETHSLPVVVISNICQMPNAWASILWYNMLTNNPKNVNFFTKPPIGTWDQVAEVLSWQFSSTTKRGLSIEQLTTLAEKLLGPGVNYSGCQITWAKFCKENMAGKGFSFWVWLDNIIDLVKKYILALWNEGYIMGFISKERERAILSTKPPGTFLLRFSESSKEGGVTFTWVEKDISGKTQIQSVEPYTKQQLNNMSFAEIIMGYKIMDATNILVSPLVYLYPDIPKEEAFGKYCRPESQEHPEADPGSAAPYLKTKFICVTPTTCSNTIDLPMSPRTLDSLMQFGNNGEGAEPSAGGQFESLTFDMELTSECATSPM
Description: as §1, §2

MG63.3 cells = test: Sulforhodamine B cytotoxicity / cell viability assay; assay type: cell-based; conditions: Homo sapiens, MG-63.3
Description: as §1, §2

[6] = female, Dog #2, 25 mg oral capsule
[7] = female, Dog #2, 50mg oral capsule
[8] = male, Dog #1, 25 mg oral capsule
[9] = male, Dog #1, 50mg oral capsule

T1 sequence (P42227 whole entry): as the sequence (P40763 whole entry) above, with E760D counted along it

In the case of `NS(=O)(=O)c1cccc2c1C(=O)C=C(Nc1cccnc1)C2=O` [LY5, 5,8-dioxo-6-(pyridin-3-ylamino)-5,8-dihydronaphthalene-1-sulfonamide], the “concentration for complete inhibition of STAT3 in vitro” value (STAT3 [1]; K7M2) is reported as 10 µM, the “exposure time for effective inhibition of STAT3 phosphorylation” value (STAT3 [1]; K7M2, 1 μM LY5) is reported as 4 h and the “concentration that decreased STAT3 phosphorylation” value (STAT3 [1]; K7M2, 2 hrs treatment) is reported as 1 µM. The AUC(0-t) [2, 6] was 2.51 µM·h, the Tmax [2, 6] was 2 h and the AUC(0-inf) [2, 6] was 2.53 µM·h. For the same compound, the AUC(0-t) [2, 7] was 5.93 µM·h, the Tmax [2, 7] was 4 h and the AUC(0-inf) [2, 7] was 5.96 µM·h. It also gave an AUC(0-t) [2, 8] of 2.62 µM·h, a Cmax [2, 8] of 230 nM and a Tmax [2, 8] of 2 h. For the same compound, the AUC(0-inf) [2, 8] was 2.69 µM·h, the AUC(0-t) [2, 9] was 2.92 µM·h and the Cmax [2, 9] was 840 nM. The Tmax [2, 9] was 3 h, the AUC(0-inf) [2, 9] was 2.97 µM·h and the Cmax ([2]; Dog #2, 25 mg oral capsule) was 516 nM. It also gave a Cmax ([2]; Dog #2, 50mg oral capsule) of 909 nM, an AUC ([3]; 5 mg/kg IP) of 0.717 µM·h and a Cmax ([3]; 5 mg/kg IP) of 545 nM. For the same compound, the Tmax ([3]; 5 mg/kg IP) was 0.083 h, the AUC(0-inf) ([3]; 5 mg/kg IP) was 0.794 µM·h and the bioavailability ([3]; 5 mg/kg IP) was 69.5%. For the same compound, the AUC ([3]; 5 mg/kg IV) was 1.14 µM·h, the Cmax ([3]; 5 mg/kg IV) was 1660 nM and the Tmax ([3]; 5 mg/kg IV) was 0.083 h. For the same compound, the AUC(0-inf) ([3]; 5 mg/kg IV) was 1.14 µM·h, the AUC ([3]; 5 mg/kg PO) was 0.784 µM·h and the Cmax ([3]; 5 mg/kg PO) was 509 nM. The Tmax ([3]; 5 mg/kg PO) was 0.5 h, the AUC(0-inf) ([3]; 5 mg/kg PO) was 0.898 µM·h and the bioavailability ([3]; 5 mg/kg PO) was 78.6%. The IC50 [4] was 200 to 400 nM, the “exposure time for effective inhibition of STAT3 phosphorylation” value (STAT3 [5]; MG 63.3, 1 μM LY5) was 0.5 h and the “concentration that decreased STAT3 phosphorylation” value (STAT3 [5]; MG63.3, 2 hrs treatment) was 1 µM. For the same compound, the IC50 (MG63.3 cells) was 3000 nM.
